The values below are quoted from earlier work in US20080112918A1, “Method for treating gout and binding uric acid” (priority 2001, published 2008).

The conditions of this data set: administered orally; treatment of gouty arthritis.

In the case of `COc1cc2c(c(OC)c1OC)-c1ccc(OC)c(=O)cc1[C@@H](NC(C)=O)CC2` [colchicine], the “people who cannot tolerate the drug because of side effects” value is on record as 80%.
